In BindingDB's records for doi:10.1021/jm960092w (Agouron Pharmaceuticals, 1996) one finds Ki data, which are given here for 1 molecule.

The experiment deals with T1, Dimer of Gag-Pol polyprotein [489-587] (Human immunodeficiency virus 1, UniProt P12497).
T1 construct: 489-587
As to the kind of experiment: Protease Inhibition Assay. Particulars: pH 5.6; 37 °C. The procedure:
Protease activity was measured by continuous chromogenic assay. The chromogenic peptide His-Lys-Ala-Arg-Val-Leu-(p-NO2-Phe)-Glu-Ala-Nleu-Ser was used as a substrate. Reactions were followed by the decrease of absorbance at 300 nm measured by spectrophotometer. Experimental results were analyzed by the nonlinear regression analysis, using a mathematical model for tight binding inhibitors.

A word on the Ki: it is the dissociation constant of the complex between target and ligand, obtained from inhibition or displacement. A lower Ki goes with a stronger hold on the target. As to `CC(C)(C)NC(=O)c1ccccc1C[C@@H](O)[C@H](Cc1ccccc1)NC(=O)[C@H](CC(N)=O)NC(=O)c1ccc2ccccc2n1` [(2S)-N-[(2S,3R)-4-[2-(tert-butylcarbamoyl)phenyl]-3-hydroxy-1-phenylbutan-2-yl]-2-(quinolin-2-ylformamido)butanediamide], the affinity corresponds to a Ki of 2 nM.
